In patent publication US10821096B1, “Compounds for inhibiting NS3 and compositions containing the inhibited protein” (priority 2019, dated 2020):

How the values were obtained:
NS3 [1] = molecular target: T1, NS3 (Hepatitis C virus genotype 4a, UniProt O39929, A1087S/A1113S/A1121T/A1128S/I1140V/I1160T/I1179L/R1118K/R1176A/S1127A); assay: Enzyme inhibition assay (SensoLyte-520 HCV protease assay kit, FRET peptide); assay type: biochemical, HCV genotype 4a; settings: MOC-23 at 6.3 μM, NS3 4.0 μM, 5-FAM/QXL520 FRET peptide
T1 construct: NS3 protease domain 1-181 aa+N-terminal T7 tag and C-terminal His tag; T7 tag (N); made in house; host or cells: E. coli Rosette (DE3) pLysS, vector pET-3a
T1 sequence (O39929 1027-1207 A1087S/A1113S/R1118K/A1121T/S1127A/A1128S/I1140V/I1160T/R1176A/I1179L): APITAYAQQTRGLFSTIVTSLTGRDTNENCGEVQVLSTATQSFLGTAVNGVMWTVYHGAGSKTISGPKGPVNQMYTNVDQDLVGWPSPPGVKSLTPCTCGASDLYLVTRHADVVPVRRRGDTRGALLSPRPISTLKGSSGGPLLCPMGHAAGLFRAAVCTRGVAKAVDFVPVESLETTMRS
Experimental: The assay was performed using SensoLyte-520® HCV protease assay kit Fluorometric® (Anaspec, Fremont, Calif., USA) according to a modified procedure to suit the purpose of determination of allosteric inhibition. NS3 (4.0 μM) was mixed with MOC-23 (6.3 μM) for 15 minutes. Afterwards, 5-FAM/QXL™520 fluorescence resonance energy transfer (FRET) peptide was added as instructed by the assay kit manual. The sequence of this FRET peptide (5-FAM-SLGRKIQIQ) is derived from the cleavage site of NS4A/NS4B. In the FRET peptide, the fluorescence of 5-FAM is quenched by QXL™520. Upon cleavage into two separate fragments by HCV NS3/4A protease, the fluorescence of 5-FAM is recovered, and can be monitored at 490 nm/520 nm (excitation/emission). Controls included buffer, compound, compound+NS3, NS3+NS4A and FRET peptide separately. All test wells and controls were repeated in triplicates at the same 96-well plate.

NS3 [2] = molecular target: T1, NS3; assay: Binding and competition assay (fluorescence anisotropy, displacement of FITC-NS4A from NS3); parameters: species or system HCV genotype 4a; settings: for binding affinity (in words): fluorescence anisotropy competition with FITC-NS4A
Experimental: Binding buffer (20 mM HEPES, 10 mM DTT, 200 mM NaCl, pH 7.6), a mixture of NS3 (1.8 μM) and FITC-NS4A ([…]) at the calculated affinity constant concentration were placed in a 96-well plate as binding test solution. A serial dilution of MOC compounds (dissolved in 1.5% DMSO in binding buffer) (1/2 dilution starting from 150 μM to 0.292 μM) was mixed gently with the binding text solution for 60 minutes in the dark. The dissociation constant was calculated according to the recommended equation embedded in GraphPad Prism v8.
The binding affinity test was performed using fluorescence anisotropy technique. In this test, maximum fluorescence was first determined at optimal ratio of NS3 (1.8 μM) and FITC-NS4A (0.1 μM). Compounds that compete with NS4A should be able to decrease the fluorescence of this mixture because they prevent the binding to occur and it should be concentration-dependent. […] The reproducibility was checked using another batch of the express NS3 protein following the same procedure and the value was calculated=7.815±1.014 μM. […] Therefore, compound MOC-23 was tested for its ability to inhibit the NS3 enzyme.

CCCCCNC(=O)c1ncc(C(=O)NCCCCNC(=N)N)[nH]1 [MOC-23, N^5-(4-guanidinobutyl)-N^2-(n-pentyl)-1H-imidazole-2,5-dicarboxamide]
inhibition of NS3 proteolytic activity (NS3 [1]): abolished any proteolytic activity | Kd (NS3 [2]; dissociation constant (reproducibility check), another batch of the expressed NS3 protein, same procedure): 7.81 ± 1.01 µM | Kd (NS3 [2]; dissociation constant Kd (competition with FITC-NS4A), fluorescence anisotropy, NS3 1.8 μM, FITC-NS4A 0.1 μM, first batch of NS3): 6.3 ± 0.3 µM | binding affinity (in words) (NS3 [2]): highest affinity

CCCCCCNC(=O)c1ncc(C(=O)NCCCCNC(=N)N)[nH]1 [MOC-24, N^5-(4-guanidinobutyl)-N^2-(n-hexyl)-1H-imidazole-2,5-dicarboxamide]
binding affinity (in words) (NS3 [2]): binding affinity at similar level
